Patent publication US9302999B2, “Substituted triazoles as herbicides” (E. I. DU PONT DE NEMOURS AND COMPANY, priority 2012, dated 2016)

Assays:
Format in all cases: in vivo
[1] = system: velvetleaf (Abutilon theophrasti); test: Test A pre-/postemergence: velvetleaf
How it was run: (§1)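 Visual 0–100 injury ratings (0 no effect, 100 complete control) taken about ten days after treatment, relative to untreated controls. Preemergence treatment was a directed soil spray; postemergence plants were 2–10 cm tall at one- to two-leaf stage. Soil: loam/sand blend.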

[2] = system: galium (catchweed bedstraw, Galium aparine); test: Test C pre-/postemergence: galium
How it was run: (§2)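 Preemergence on seeds in loam/sand, postemergence on 2–18 cm (1–4-leaf) plants in peat-based medium; compounds in non-phytotoxic solvent with surfactant. After 13–15 days in greenhouse, visual rating versus controls, 0 (no effect) to 100 (complete control).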

[3] = system: ryegrass, Italian (Italian ryegrass, Lolium multiflorum); test: Test C pre-/postemergence: ryegrass, Italian
How it was run: as §2

[4] = system: nutsedge, yellow (yellow nutsedge, Cyperus esculentus); test: Test C pre-/postemergence: nutsedge, yellow
How it was run: as §2

[5] = system: chickweed (common chickweed, Stellaria media); test: Test C postemergence: chickweed
How it was run: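 Greenhouse pot test; foliar postemergence treatment at 1- to 4-leaf stage. Rated visually at 13 to 15 days on a 0–100 control scale relative to untreated plants.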

[6] = system: barnyardgrass (Echinochloa crus-galli); test: Test A pre-/postemergence: barnyardgrass
How it was run: as §1

[7] = system: morningglory (Ipomoea spp.); test: Test A pre-/postemergence: morningglory
How it was run: as §1

[8] = system: large crabgrass (Digitaria sanguinalis); test: Test C pre-/postemergence: large crabgrass
How it was run: as §2

[9] = system: crabgrass, large (large crabgrass, Digitaria sanguinalis); test: Test A pre-/postemergence: crabgrass, large
How it was run: as §1

[10] = system: wild oat (Avena fatua); test: Test C pre-/postemergence: wild oat; conditions: Postemergence
How it was run: as §2

[11] = system: foxtail, giant (giant foxtail, Setaria faberii); test: Test A pre-/postemergence: foxtail, giant
How it was run: as §1

[12] = Postemergence, 125 g ai/ha, 0 to 100 scale, 0 is no effect, 100 is complete control
[13] = Postemergence, 500 g ai/ha, visual rating on 0 to 100 scale (0 no effect, 100 complete control), approximately ten days
[14] = Preemergence, 125 g ai/ha, 0 to 100 scale where 0 is no effect and 100 is complete control
[15] = Preemergence, 500 g ai/ha, 0 to 100 scale (0 no effect, 100 complete control)
[16] = Postemergence, 16 g ai/ha, scale 0 to 100, 0 no effect, 100 complete control
[17] = Postemergence, 31 g ai/ha, scale 0 to 100 (0 no effect, 100 complete control)
[18] = Postemergence, 62 g ai/ha, scale 0 to 100 (0 no effect, 100 complete control)
[19] = Postemergence, 125 g ai/ha, scale 0 to 100, 0 no effect, 100 complete control
[20] = Preemergence, 31 g ai/ha, scale of 0 to 100, 0 is no effect, 100 is complete control
[21] = Preemergence, 62 g ai/ha, scale of 0 to 100, 0 is no effect, 100 is complete control
[22] = Preemergence, 125 g ai/ha, scale 0 to 100, 0 no effect, 100 complete control
[23] = Preemergence, 16 g ai/ha, scale 0 (no effect) to 100 (complete control)
[24] = 16 g ai/ha, scale 0 to 100, 0 no effect, 100 complete control
[25] = 31 g ai/ha, scale 0 to 100 (0 no effect, 100 complete control)
[26] = 62 g ai/ha, scale 0 to 100 (0 no effect, 100 complete control)
[27] = 125 g ai/ha, scale 0 to 100, 0 no effect, 100 complete control

## FCc1nn(-c2ccc(F)cc2)nc1Oc1ccnc(C(F)(F)F)c1 [Compound 160]
[1]; [12]
  Plant response rating, Velvetleaf: 90
[1]; [13]
  Velvetleaf plant response rating: 100
[1]; [14]
  Plant response rating, Velvetleaf: 50
[1]; [15]
  Plant response rating, Velvetleaf: 70
[2]; [16]
  Plant response rating, Galium: 55
[2]; [17]
  Plant response rating, Galium: 80
[2]; [18]
  Plant response rating, Galium: 85
[2]; [19]
  Plant response rating, Galium: 95
[2]; [20]
  Plant response rating, Galium: 5
[2]; [21]
  Plant response rating, Galium: 100
[2]; [22]
  Plant response rating, Galium: 100
[3]; [16]
  Plant response rating, Ryegrass, Italian: 10
[3]; [17]
  Plant response rating, Ryegrass, Italian: 30
[3]; [18]
  Plant response rating, Ryegrass, Italian: 30
[3]; [19]
  Plant response rating, Ryegrass, Italian: 45
[3]; [23]
  Plant response rating, Ryegrass, Italian: 5
[3]; [20]
  Plant response rating, Ryegrass, Italian: 15
[3]; [21]
  Plant response rating, Ryegrass, Italian: 80
[3]; [22]
  Plant response rating, Ryegrass, Italian: 90
[4]; [16]
  Plant response rating, Nutsedge, Yellow: 5
[4]; [17]
  Plant response rating, Nutsedge, Yellow: 10
[4]; [18]
  Plant response rating, Nutsedge, Yellow: 10
[4]; [19]
  Plant response rating, Nutsedge, Yellow: 15
[4]; [23]
  Plant response rating, Nutsedge, Yellow: 0
[4]; [20]
  Plant response rating, Nutsedge, Yellow: 0
[4]; [21]
  Plant response rating, Nutsedge, Yellow: 0
[4]; [22]
  Plant response rating, Nutsedge, Yellow: 0
[5]; [24]
  Plant response rating, Chickweed: 70
[5]; [25]
  Plant response rating, Chickweed: 90
[5]; [26]
  Plant response rating, Chickweed: 95
[5]; [27]
  Plant response rating, Chickweed: 98
[6]; [12]
  Plant response rating, Barnyardgrass: 70
[6]; [13]
  Barnyardgrass plant response rating: 90
[6]; [14]
  Plant response rating, Barnyardgrass: 100
[6]; [15]
  Plant response rating, Barnyardgrass: 100
[7]; [12]
  Plant response rating, Morningglory: 90
[7]; [13]
  Morningglory plant response rating: 90
[7]; [14]
  Plant response rating, Morningglory: 40
[7]; [15]
  Plant response rating, Morningglory: 70
[8]; [16]
  Plant response rating, Crabgrass, Large: 20
[8]; [17]
  Plant response rating, Crabgrass, Large: 25
[8]; [18]
  Plant response rating, Crabgrass, Large: 35
[8]; [19]
  Plant response rating, Crabgrass, Large: 40
[8]; [23]
  Plant response rating, Crabgrass, Large: 90
[8]; [20]
  Plant response rating, Crabgrass, Large: 100
[8]; [21]
  Plant response rating, Crabgrass, Large: 100
[8]; [22]
  Plant response rating, Crabgrass, Large: 100
[9]; [12]
  Plant response rating, Crabgrass, Large: 90
[9]; [13]
  Crabgrass, Large plant response rating: 90
[9]; [14]
  Plant response rating, Crabgrass, Large: 100
[9]; [15]
  Plant response rating, Crabgrass, Large: 100
[10]; [24]
  Plant response rating, Oat, Wild: 15
[10]; [25]
  Plant response rating, Oat, Wild: 30
[10]; [26]
  Plant response rating, Oat, Wild: 45
[10]; [27]
  Plant response rating, Oat, Wild: 60
[11]; [12]
  Plant response rating, Foxtail, Giant: 90
[11]; [13]
  Foxtail, Giant plant response rating: 90
[11]; [14]
  Plant response rating, Foxtail, Giant: 100
[11]; [15]
  Plant response rating, Foxtail, Giant: 100
